Reference: patent US9340549B2, “Oxazolidinone compounds and derivatives thereof” (priority 2012, dated 2016)
Like-named read-outs stand apart in the source and are kept apart here.

Columns and labels:
[1] = system: 8×TCF promoter-driven Firefly luciferase (Wnt reporter) in HEK-293 cells; assay: 2H9-STF assay, Wnt ligand activated HEK-293 assay in WT APC cellular context; type: cell-based; conditions: Homo sapiens, HEK293; HEK-293 reporter cells, 200 ng/mL mouse Wnt3a, 18 to 24 hours; read-out: 2H9-Wnt3a-STF-FF/RL * 100 IC50
Procedure: HEK-293 cells engineered with an 8×TCF promoter-driven Firefly (FF) luciferase gene (Wnt reporter) along with an SV40 promoter-driven Renilla (RN) luciferase gene (control reporter) were used to measure the potency of tankyrase compounds in the context of Wnt ligand activation in a wild-type (non-APC mutated) cellular background. The engineered HEK-293 cells were plated (25 μL) at a density of 40,000 cells/well in black, clear-bottom, 96-well View plates (PerkinElmer) in normal growth medium (DMEM with 10% FBS with no antibiotics). Tankyrase inhibitors (5 μL) were transferred to cells from a three-fold serially diluted compound plate. A 10-point dilution series was tested starting at a concentration (10 μM final concentration in assay). Column 6 contained only DMSO and served as the “HI” control. Cells and compounds were incubated together for 1 hour at 37° C. after which the Wnt3a ligand (pathway inducer) was added to all wells except column 12 which served as the “LO” control. Twenty microliters of diluted recombinant mouse Wnt3a (R & D Systems) was added to the cells for a final concentration of 200 ng/mL (5 nM which is the Wnt3a˜EC80) and the plates were incubated at 37° C. for 18 to 24 hours. The Dual-Glo Reagents (Promega) were added as directed by manufacturer to assay the FF and RN luciferase activity. Luciferase activity was measures using the EnVision multilabel plate reader (PerkinElmer).

[2] = molecular target: 6×HIS-tankyrase 2 (946-1162) (Homo sapiens (Human), UniProt Q9H2K2); assay: Tankyrase 2 biochemical assay (AlphaLisa, anti-PAR detection); conditions: 4 nM enzyme, 250 nM NAD; read-out: TNKS2 IP IC50
Sequence of 6×HIS-tankyrase 2 (946-1162) (Q9H2K2 946-1162): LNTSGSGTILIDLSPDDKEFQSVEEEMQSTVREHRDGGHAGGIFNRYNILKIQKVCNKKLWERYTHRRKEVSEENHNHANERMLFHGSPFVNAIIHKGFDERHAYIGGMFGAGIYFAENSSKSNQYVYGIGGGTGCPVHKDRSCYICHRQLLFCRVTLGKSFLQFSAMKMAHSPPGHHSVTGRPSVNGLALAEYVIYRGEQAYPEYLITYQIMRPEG

[3] = system: total β-catenin in SW480 colorectal cells; assay: cells; type: cell-based
Method in brief: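 SW480 cells in growth medium (MEM alpha, 10% heat-inactivated FBS, 10 mM HEPES) treated with a 10-point, 3-fold dilution series of TNKS inhibitor for 40–48 h at 37 °C. Lysates run on an MSD sandwich immunoassay for total β-catenin, read by electrochemiluminescence.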

[4] = molecular target: 6×HIS-tankyrase 1 (1091-1325) (Homo sapiens (Human), UniProt O95271); assay: biochemical; type: biochemical; conditions: […] enzyme, 400 nM NAD, 60 minutes at room temperature; read-out: TNKS1 IP IC50
Sequence of 6×HIS-tankyrase 1 (1091-1325) (O95271 1091-1325): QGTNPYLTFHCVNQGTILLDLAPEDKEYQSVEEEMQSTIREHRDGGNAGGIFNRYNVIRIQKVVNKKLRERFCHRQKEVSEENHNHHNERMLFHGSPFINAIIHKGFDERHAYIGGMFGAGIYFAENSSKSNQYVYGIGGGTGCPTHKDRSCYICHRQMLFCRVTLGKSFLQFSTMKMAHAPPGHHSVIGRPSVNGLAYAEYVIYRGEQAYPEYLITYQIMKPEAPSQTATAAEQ

Axin2 in SW480 cells = assay: cells; type: cell-based; conditions: read-out: Axin2 384 IF EC50 IP
Method in brief: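 SW480 cells treated 24 h at 37° C (0.5% DMSO final), fixed/permeabilized, immunostained for Axin2. ArrayScan imaging quantified ring-spot intensity; Axin2 accumulation expressed as percent of control, EC50 from concentration-response.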

[5] = Homo sapiens, SW480 cells, 40 to 48 hours, top concentration 10 μM, read-out: SW480-Total β-Catenin IC50 IP
[6] = Homo sapiens, SW480, 24 h, SW480 cells, 24 hours
[7] = Homo sapiens, SW480, read-out: SW480-Total β-Catenin IC50 IP

| Molecule | IC50 [3, 5] [µM] | IC50 [4] [µM] | EC50 (Axin2 in SW480 cells; [6]) [µM] | other results |
| --- | --- | --- | --- | --- |
| CC1(C)OC(=O)N([C@H]2CC[C@H](NC(=O)c3cccc4cccnc34)CC2)[C@@H]1c1ccccc1 (single isomer, unassigned) [Example 28] | – | – | – | IC50 [1]: 0.113 µM |
| CC1(C)OC(=O)N(c2ccc(-c3cnc(N)c(-c4ccc5nncn5n4)c3)cc2)[C@H]1c1ccccc1 [Example 12, (S)-3-(4-(5-([1,2,4]triazolo[4,3-b]pyridazin-6-yl)-6-aminopyridin-3-yl)phenyl)-5,5-dimethyl-4-phenyloxazolidin-2-one] | 0.212 | 0.0521 | – | IC50 [2]: 0.0493 µM |
| CC1(C)OC(=O)N([C@H]2CC[C@H](C(=O)Nc3cccc4cccnc34)CC2)[C@H]1c1ccccc1 [Example 32, (1S,4r)-4-((S)-5,5-dimethyl-2-oxo-4-phenyloxazolidin-3-yl)-N-(quinolin-8-yl)cyclohexanecarboxamide] | – | – | – | IC50 [1]: 0.0928 µM |
| CC1(C)OC(=O)N([C@H]2CC[C@H](n3c(=O)[nH]c4ccccc43)CC2)C1c1ccccc1 (stereo partly shown) [Example 35, (R+S) 5,5-dimethyl-3-((1r,4r)-4-(2-oxo-2,3-dihydro-1H-benzo[d]imidazol-1-yl)cyclohexyl)-4-phenyloxazolidin-2-one] | 1.33 | 0.0118 | 6.69 | IC50 [1]: 0.543 µM |
| CC1(C)OC(=O)N([C@H]2CC[C@H](n3c(=O)[nH]c4cccnc43)CC2)[C@H]1c1ccccc1 [Example 37, (S)-5,5-dimethyl-3-((1r,4S)-4-(2-oxo-1H-imidazo[4,5-b]pyridin-3(2H)-yl)cyclohexyl)-4-phenyloxazolidin-2-one] | 0.517 | – | 3.58 | IC50 [1]: 0.183 µM |
| CC1(C)OC(=O)N(c2ccc(-c3cnc(N)c(-c4ncc(F)cn4)c3)cc2)[C@H]1c1ccccc1 [Example 64, (S)-3-(4-(6-amino-5-(5-fluoropyrimidin-2-yl)pyridin-3-yl)phenyl)-5,5-dimethyl-4-phenyloxazolidin-2-one] | 0.293 | 0.085 | 3.23 | IC50 [2]: 0.0483 µM |
| CC1(C)OC(=O)N([C@H]2CC[C@H](c3cnc4[nH]c(=O)n(-c5ncccn5)c4c3)CC2)[C@H]1c1ccccc1 [Example 98, (S)-5,5-dimethyl-3-((1r,4S)-4-(2-oxo-1-(pyrimidin-2-yl)-2,3-dihydro-1H-imidazo[4,5-b]pyridin-6-yl)cyclohexyl)-4-phenyloxazolidin-2-one] | 0.0482 | 0.000316 | 0.0357 | – |
| COc1cccc([C@H]2N(c3ccc(C(=O)Nc4cccc5cccnc45)cc3)C(=O)OC2(C)C)c1 [Example 106, (R)-4-(4-(3-Methoxyphenyl)-5,5-dimethyl-2-oxooxazolidin-3-yl)-N-(quinolin-8-yl)benzamide] | 6.65 | 1.88 | > 25 | – |
| CC1(C)OC(=O)N(c2ccc(C(=O)Nc3cccc4cccnc34)cc2)[C@H]1c1cccc(F)c1 [Example 110, (S)-4-(4-(3-fluorophenyl)-5,5-dimethyl-2-oxooxazolidin-3-yl)-N-(quinolin-8-yl)benzamide] | 1.69 | 0.193 | 2.7 | – |
| COc1ccc([C@@H]2N(c3ccc(C(=O)Nc4cccc5cccnc45)cc3)C(=O)OC2(C)C)cc1 [Example 113, (S)-4-(4-(4-methoxyphenyl)-5,5-dimethyl-2-oxooxazolidin-3-yl)-N-(quinolin-8-yl)benzamide] | 2.11 | 0.13 | 5.22 | – |
| CC1(C)OC(=O)N(c2ccc(-c3cc(-c4ccccn4)c[nH]c3=O)cc2)[C@H]1c1ccccc1 [Example 115, (S)-5,5-dimethyl-3-(4-(6′-oxo-1′,6′-dihydro-[2,3′-bipyridin]-5′-yl)phenyl)-4-phenyloxazolidin-2-one] | 1.01 | 0.0953 | 4.38 | – |
| CC1(C)OC(=O)N(c2ccc(-c3cc(-c4cccnc4)cnc3F)cc2)[C@H]1c1ccccc1 [Example 117, (S)-3-(4-(6-fluoro-[3,3′-bipyridin]-5-yl)phenyl)-5,5-dimethyl-4-phenyloxazolidin-2-one] | 1.05 | 0.193 | 5.74 | – |
| CC1(C)OC(=O)N(c2ccc(-c3cc(-c4cccnc4)c[nH]c3=O)cc2)[C@H]1c1ccccc1 [Example 118, (S)-5,5-dimethyl-3-(4-(6-oxo-1,6-dihydro-[3,3′-bipyridin]-5-yl)phenyl)-4-phenyloxazolidin-2-one] | > 10 | 0.15 | > 25 | – |
| CC1(C)OC(=O)N(c2ccc(-c3ccc[nH]c3=O)cc2)[C@H]1c1ccccc1 [Example 119, (S)-5,5-dimethyl-3-(4-(2-oxo-1,2-dihydropyridin-3-yl)phenyl)-4-phenyloxazolidin-2-one] | > 10 | 1.35 | > 25 | – |
| CC1(C)OC(=O)N(c2ccc(-c3cc(-c4nccc(C#N)n4)c[nH]c3=O)cc2)[C@H]1c1ccccc1 [Example 120, (S)-2-(5-(4-(5,5-dimethyl-2-oxo-4-phenyloxazolidin-3-yl)phenyl)-6-oxo-1,6-dihydropyridin-3-yl)pyrimidine-4-carbonitrile] | 2.36 | 0.0758 | 0.825 | – |
| CC1(C)OC(=O)N(c2ccc(C(=O)Nc3cccc4cccnc34)cc2)[C@H]1c1ccncc1 [Example 126, (S)-4-(5,5-dimethyl-2-oxo-4-(pyridin-4-yl)oxazolidin-3-yl)-N-(quinolin-8-yl)benzamide] | – | 0.272 | 4.62 | IC50 [3, 7]: 0.761 µM |
| CC1(C)OC(=O)N(c2ccc(-n3cc(-c4ncccn4)ccc3=O)cc2)[C@H]1c1ccccc1 [Example 127, (S)-5,5-dimethyl-3-(4-(2-oxo-5-(pyrimidin-2-yl)pyridin-1(2H)-yl)phenyl)-4-phenyloxazolidin-2-one] | 1.1 | 0.28 | 6.27 | – |
| CC1(C)OC(=O)N(c2ccc(-c3cc(-c4ncccn4)ncc3F)cc2)[C@H]1c1ccccc1 [Example 129, (S)-3-(4-(5-fluoro-2-(pyrimidin-2-yl)pyridin-4-yl)phenyl)-5,5-dimethyl-4-phenyloxazolidin-2-one] | > 10 | 1.83 | > 25 | – |
| CC1(C)OC(=O)N([C@H]2CC[C@H](c3cc(C4=NCCCN4)c[nH]c3=O)CC2)[C@H]1c1ccccc1 [Example 130, (S)-5,5-dimethyl-3-((1r,4S)-4-(2-oxo-5-(1,4,5,6-tetrahydropyrimidin-2-yl)-1,2-dihydropyridin-3-yl)cyclohexyl)-4-phenyloxazolidin-2-one] | – | 0.783 | – | IC50 [3, 7]: > 10 µM; EC50 (Axin2 in SW480 cells; Homo sapiens, SW480, 24 h): > 25 µM |
| CC1(C)OC(=O)N(C2CC=C(c3cnc(N)c(-c4ncccn4)c3)CC2)C1c1ccccc1 (stereo not shown) [Example 131, 3-(4-(6-amino-5-(pyrimidin-2-yl)pyridin-3-yl)cyclohex-3-en-1-yl)-5,5-dimethyl-4-phenyloxazolidin-2-one] | 0.362 | 0.016 | 1.03 | – |
| (S)-5,5-dimethyl-3-(4-(2-oxo-1H-imidazo[4,5-c]pyridin-3(2H)-yl)phenyl)-4-phenyloxazolidin-2-one [Example 15] | – | 0.105 | – | IC50 ([3]; SW480 cells, 40 to 48 hours, top concentration 10 μM, read-out: SW480-Total β-Catenin IC50 IP): 0.992 µM; EC50 (Axin2 in SW480 cells; SW480 cells, 24 hours): 4.15 µM |
